From publication PMC11087525 (Scientific Reports, 2024)
Values after ≈ are worked out from the molar mass of the structure shown. Values joined by “and” are separate entries in the source; they are usually repeats but may differ in a detail not shown here. Equal entries are not always repeated. Where two headings read alike, the source gives them in different places.

Experiments:
[1] = system: Human brain primary astrocytes; experiment: In-vitro drug uptake by human brain primary astrocytes
pericytes [2] = experiment: In-vitro drug uptake by human brain pericytes
human neurons [3] = system: human neurons
pericytes [4] = conditions: human, 24 h, 1000 ng/mL
human neurons [5] = experiment: In-vitro drug uptake by human neurons; conditions: for uptake of NMR by neurons (mean ± SD): 24-h incubation
[6] = cited from earlier work
[7] = cited from earlier work; remark: listed apart in the source
[8] = system: SARS-CoV-2 USA_WAI/2020 isolate; conditions: cited from earlier work; for plasma EC90Adjusted concentration: adjusted for plasma protein binding
[9] = rats
in vivo [10] = conditions: male, Sprague-Dawley, rat; for Tmax: Average Tmax
[11] = cited from earlier work; remark: listed apart in the source
[12] = system: SARS-CoV-2 USA_WAI/2020 isolate
Source text: Therefore, the goal for the CSF was set to achieve the same exposure conditions as for plasma.

[13] = set-up: method as in earlier work; conditions: cited from earlier work
in vivo [14] = conditions: male, Sprague-Dawley, rat, Median (IQR), rats
[15] = cited from earlier work; remark: listed apart in the source
[16] = RTV alone, 1000 ng/mL, 24-h incubation
[17] = rats, oral 30 mg/kg NMR + 10 mg/kg RTV twice daily, 5 days
[18] = rats, oral NMR/RTV twice daily, 5 days
[19] = in the presence or absence of RTV

## CC(C)c1nc(CN(C)C(=O)N[C@H](C(=O)N[C@@H](Cc2ccccc2)C[C@H](O)[C@H](Cc2ccccc2)NC(=O)OCc2cncs2)C(C)C)cs1 [RTV, ritonavir]
[1]; [16]
  RTV uptake in astrocytes (mean ± SD): 419.7 ng/mL
Pericytes [2]; [16]
  RTV uptake in pericytes (mean ± SD): 202.6 ng/mL
Human neurons [3]
  neuronal entry of RTV: moderate
Pericytes [4]
  uptake of RTV by pericytes (uptake/administered): 20.2%

## CC(C)(C)[C@H](NC(=O)C(F)(F)F)C(=O)N1C[C@H]2[C@@H]([C@H]1C(=O)N[C@H](C#N)C[C@@H]1CCNC1=O)C2(C)C [NMR, nirmatrelvir]
Human neurons [5]; NMR alone, 2200 ng/mL
  uptake of NMR by neurons (mean ± SD): 34.7 ng/mL
Human neurons [5]; in the presence of RTV (1000 ng/mL), NMR 2200 ng/mL
  uptake of NMR by neurons (mean ± SD): 122.8 ± 7.8 ng/mL
Human neurons [5]; neurons in the presence of RTV, 2200 ng/mL administered
  maximum NMR uptake (uptake/administered): 5.5%
[6]
  lipophilicity coefficient (LogP): 1.68
[7]
  passive apparent permeability (Papp): 17.6 nm/s
[8]; bronchial epithelial cells infected with USA_WAI/2020 isolate
  plasma EC90Adjusted concentration: 0.292 mg/L
[8]
  plasma EC90Adjusted concentration: 0.585 µM
[8]; unadjusted for protein binding
  EC90Un_adjusted: 0.0905 mg/L (≈ 0.181 µM)
  EC90Un_adjusted for CSF: 0.0905 mg/L
All rats
  Cmax_0-5 days Plasma, Median (IQR): 2240 (1860–4030) ng/mL
All rats with CSF, 3xEC90 271.5 ng/mL unadjusted for protein binding
  %CSF Concentrations ≥ 3xEC90Un_adjusted, Median (IQR): 16 (0 -20.5) % and 16%
Excluding rat 7, calculated to compare to clinical data
  Cmax_0-5 days Plasma, Geometric mean (Geometric SD factor): 2.48 µg/mL
rats
  CSF Cmax, median: 0.41 µg/mL
Rats with CSF sampled
  % Penetration by Cmax CSF/Plasma, Median (IQR): 18.11%
  Cmax_0-5 days CSF, Median (IQR): 410 (200–880) ng/mL
[17]
  CL (NMR clearance), median from final model: 0.23 L/h
  Ka, median from final model: 0.51 h⁻¹
[18]
  K23 (rate constant to CSF from central compartment), median: 0.05 h⁻¹
  Vc (volume central compartment), median: 1.05 L
  Vcsf (volume cerebrospinal fluid compartment), median: 3.46 L
[9]
  Brain NMR concentration, Median (IQR): 23.83 (10.94-46.85) ng/g
  Heart NMR concentration, Median (IQR): 61.72 (24.44-111.5) ng/g
  Kidney NMR concentration, Median (IQR): 97.84 (43.28-297.3) ng/g
  Liver NMR concentration, Median (IQR): 110 (35.65-419.5) ng/g
  Lung NMR concentration, Median (IQR): 67.86 (25.01-111.3) ng/g
  PBMC NMR concentration, Median (IQR): 61.44 (31.7-345.2) ng/mL
[9]; adjusted or unadjusted for protein binding
  brain NMR concentrations compared to 3xEC90: all < 3xEC90 regardless of adjustment for protein binding
[1]; astrocytes
  difference in NMR uptake, NMR alone or with RTV: No significant differences
[1]; [19]
  uptake of NMR by astrocytes: < 2%
Pericytes [2]; [19]
  uptake of NMR by pericytes: < 2%
Pericytes [2]; pericytes
  difference in NMR uptake, NMR alone or with RTV: No significant differences
In vivo [10]
  Cmax: 2.48 µg/mL
In vivo [10]; % Penetration by AUC CSF/Plasma, Median (IQR), rats with CSF sampled
  Kp: 0.152
In vivo [10]; % Penetration by Cmax CSF/Plasma, Median (IQR), rats with CSF sampled
  Kp: 0.181
In vivo [10]; po, 30 mg/kg
  k el: 6.67e-05 s⁻¹
In vivo [10]; po, 30 mg/kg, AUC0-endoftreatment CSF, Median (IQR), rats with CSF sampled
  AUC: 17.6 µg·h/mL
In vivo [10]; po, 30 mg/kg, AUC0-endoftreatment Plasma, Median (IQR), all rats
  AUC: 114 µg·h/mL
In vivo [10]; po, 30 mg/kg, AUC0-endoftreatment Plasma, Median (IQR), excluding rat 7
  AUC: 128 µg·h/mL
In vivo [10]; po, 30 mg/kg, AUCdaily_average CSF, Median (IQR), rats with CSF sampled
  AUC: 3.52 µg·h/mL
In vivo [10]; po, 30 mg/kg, AUCdaily_average Plasma, Geometric mean (Geometric SD factor), excluding rat 7, calculated to compare to clinical data
  AUC: 20.2 µg·h/mL
In vivo [10]; po, 30 mg/kg, AUCdaily_average Plasma, Median (IQR), all rats
  AUC: 22.8 µg·h/mL
In vivo [10]; po, 30 mg/kg, AUCdaily_average Plasma, Median (IQR), excluding rat 7
  AUC: 25.6 µg·h/mL
In vivo [10]; po, 30 mg/kg, Mean (SD), all rats, calculated to compare to literature values
  Tmax: 1.84 h
In vivo [10]; po, 30 mg/kg, Median (IQR), all rats
  Tmax: 1.68 h
In vivo [10]; po, 30 mg/kg, Half-life, Median (IQR), all rats, NMR in the presence of RTV
  half-life: 2.55 h
In vivo [10]; po, NMR CSF concentrations as % of those in plasma, ratio of Cmax or AUC, oral NMR/RTV twice daily for five days
  Kp: 0.15 to 0.18
[11]; 10 mg/kg oral, rat
  NMR half-life in other oral rat PK studies: 4 h
[11]
  F literature values estimated in rats for NMR: 34–50%
  Tmax in other rodent models, mean: 1.5 h
[12]
  3xEC90 PD value for CSF: 271.5 ng/mL
  3xEC90 PD value for plasma and tissue: 876 ng/mL
  3xEC90 plasma protein adjusted in plasma: 0.876 mg/L
  3xEC90 unadjusted in CSF: 0.2715 mg/L
[13]
  protein bound: 69%
In vivo [14]; AR Brain
  Kp: 0.15
In vivo [14]; AR Kidney
  Kp: 1.71
In vivo [14]; AR Liver
  Kp: 2.71
In vivo [14]; AR Lung
  Kp: 0.89
In vivo [14]; AR PBMC
  Kp: 0.998
[15]; EPIC-HR, FDA review
  participants with NMR trough concentrations ≥ 3 × EC90: 95%
[15]
  NMR Ka reported by others: 0.55 h⁻¹
  half-life for NMR in the presence of RTV in humans: 6.05 h
[15]; healthy volunteers
  healthy human geometric mean AUC0-12 h: 23.01 µg·h/mL
  healthy human geometric mean Cmax: 2.21 µg/mL
